This assay concerns Zebrafish, Danio rerio. As to the kind of experiment: Zebrafish swim exhaustion test (vessel plunger model). It is filed as in vivo. Also noted: Immediate recovery 20 min later, % Control (change from the control treatment as a percentage of the control treatment): concentration or dose not given beside the values. The settings on record: for Immediate recovery 20 min later, % Control (change from the control treatment as a percentage of the control treatment) / Immediate recovery 20 min later, Average: 20 minutes after treatment; for Immediate recovery 20 min later, % Control (change from the control treatment as a percentage of the control treatment): versus water control; for Immediate recovery 20 min later, Average: average of 8 fish; for Immediate recovery 20 min later, Average / Immediate recovery 20 min later (water vortex revolutions per minute when the fish failed to maintain swimming in place): post exhaustion; for Immediate recovery 20 min later (water vortex revolutions per minute when the fish failed to maintain swimming in place): individual fish (8 per treatment), 20 minutes after application of the treatment. The source says: This study utilizes a well-recognized vessel plunger model system to determine fish exhaustion during maximal swim performance trials (Usui T, Noble […]. The French press: a repeatable and high-throughput approach to exercising zebrafish (Danio rerio). […] In brief, zebrafish is placed in the top compartment above plunger and evaluated for its ability to swim against circular water currents created by a rotating magnetic stir bar positioned below the plunger. […] Next, the fish is brought to the water surface with the aid of a plunger and the composition is administered to the fish using one of the possible methods of administration. The fish is lowered back into the top compartment, and the individual maximum swimming speed is determined again (post-exhaustion value). This experimental setup allows one to determine the highest tolerated continuous swimming speed associated with control, exhaustion and recovery conditions that models catching, fighting, landing, treating, and releasing fish. […] The experimental methodology was substantially similar to the methods discussed in Usui, et al. (2018). […] Each treatment was administered to eight Zebrafish (n=104 total fish). […] Initial swim strength was measured prior to exhaustion of the fish and subsequent administration of the selected treatment and therefore serves as a baseline. […] After the initial swim strength test, the fish swam to exhaustion (as defined in Usui, et al. […] As anticipated by the Applicant, even post-treatment the fish became exhausted at a lower rpm, but there were significant differences in when each treatment group began to tire.

Experimental findings from US12636305B2, “Composition and method of applying same to increase survival of fish following catch-and-release situations” (Dutch Creek Nymphing, LLC, priority 2022, dated 2026) are described below.

“And” between values parts separate entries of the source, which are not always exact repeats. Equal entries are not always repeated.

Consider `O=C(O)CN(CCN(CC(=O)O)CC(=O)O)CC(=O)O` [EDTA, ethylenediaminetetraacetic acid], for which the “Immediate recovery 20 min later, % Control (change from the control treatment as a percentage of the control treatment)” value was determined as 8%; the “Immediate recovery 20 min later, Average” value is 446 rpm; the “Immediate recovery 20 min later (water vortex revolutions per minute when the fish failed to maintain swimming in place)” value is 460 rpm (3×) and 430 rpm and 410 rpm (2×) and 420 rpm and 520 rpm.

Consider `N=C(N)NCCC[C@H](N)C(=O)O` [Arginine, arginine], for which the “Immediate recovery 20 min later, % Control (change from the control treatment as a percentage of the control treatment)” value came to 17%; the “Immediate recovery 20 min later, Average” value was 484 rpm; the “Immediate recovery 20 min later (water vortex revolutions per minute when the fish failed to maintain swimming in place)” value is 520 rpm (2×) and 510 rpm and 550 rpm and 450 rpm and 580 rpm and 460 rpm and 280 rpm.

As to `C/C=C/C=C/C(=O)[O-].[K+]` [Potassium sorbate, potassium sorbate], the “Immediate recovery 20 min later, % Control (change from the control treatment as a percentage of the control treatment)” value is given as 5%; the “Immediate recovery 20 min later, Average” value was 433 rpm; the “Immediate recovery 20 min later (water vortex revolutions per minute when the fish failed to maintain swimming in place)” value is 380 rpm and 420 rpm and 440 rpm and 460 rpm (2×) and 390 rpm and 500 rpm and 410 rpm.

For the molecule `O=C([O-])[O-].O=C([O-])[O-].OO.OO.OO.[Na+].[Na+].[Na+].[Na+]` [Sodium percarbonate, sodium percarbonate], the “Immediate recovery 20 min later, % Control (change from the control treatment as a percentage of the control treatment)” value worked out at 24%; the “Immediate recovery 20 min later, Average” value is given as 514 rpm; the “Immediate recovery 20 min later (water vortex revolutions per minute when the fish failed to maintain swimming in place)” value is 540 rpm (2×) and 500 rpm and 590 rpm and 530 rpm and 430 rpm and 520 rpm and 460 rpm.

For the molecule `CC(=O)C(=O)O` [Pyruvate, pyruvate], the “Immediate recovery 20 min later, % Control (change from the control treatment as a percentage of the control treatment)” value turned out to be 9%; the “Immediate recovery 20 min later, Average” value is recorded as 451 rpm; the “Immediate recovery 20 min later (water vortex revolutions per minute when the fish failed to maintain swimming in place)” value is 420 rpm (2×) and 430 rpm and 450 rpm (2×) and 510 rpm and 520 rpm and 410 rpm.

As to `CC(C)C[C@H](N)C(=O)O` [Leucine, leucine], the “Immediate recovery 20 min later, % Control (change from the control treatment as a percentage of the control treatment)” value was 10%; the “Immediate recovery 20 min later, Average” value is given as 455 rpm; the “Immediate recovery 20 min later (water vortex revolutions per minute when the fish failed to maintain swimming in place)” value was 460 rpm and 400 rpm and 470 rpm (2×) and 510 rpm and 490 rpm and 390 rpm and 450 rpm.

For salt, the “Immediate recovery 20 min later, % Control (change from the control treatment as a percentage of the control treatment)” value is 14%; the “Immediate recovery 20 min later, Average” value was determined as 471 rpm; the “Immediate recovery 20 min later (water vortex revolutions per minute when the fish failed to maintain swimming in place)” value was 410 rpm and 490 rpm (2×) and 510 rpm (2×) and 480 rpm (2×) and 400 rpm.
